Assay [1] concerns the target T1, recombinant LpxA enzyme (P. aeruginosa) (Pseudomonas aeruginosa, UniProt Q9X6P4).
T1 sequence (Q9X6P4 1-258): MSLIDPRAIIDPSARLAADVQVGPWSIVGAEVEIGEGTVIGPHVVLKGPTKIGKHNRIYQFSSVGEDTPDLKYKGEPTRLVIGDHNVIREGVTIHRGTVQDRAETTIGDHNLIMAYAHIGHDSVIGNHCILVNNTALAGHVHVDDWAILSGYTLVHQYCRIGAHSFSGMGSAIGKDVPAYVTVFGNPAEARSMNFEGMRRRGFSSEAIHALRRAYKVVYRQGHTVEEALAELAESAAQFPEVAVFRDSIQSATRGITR
The assay is described as follows: LpxA in vitro substrate acylation assay with RapidFire MS analysis (P. aeruginosa). Format: biochemical. The following applies: P. aeruginosa enzyme 0.5 nM, PaACP-C10, 30 min. As for the experimental part: (§1) Exemplary compounds from the above Examples were tested for ability to inhibit LpxA activity using an in vitro substrate acylation assay with RapidFire™ MS analysis. Assay procedures and results are described below.
(§2) Reactions were carried out in a final volume of 30 μL with 25 mM HEPES (pH 7.3), 150 mM NaCl, 2 mM DTT, 0.01% BSA, 5 μM UDP-GlcNac, recombinant LpxA enzyme (0.5 nM P. aeruginosa or 1.0 nM E. coli, both produced at Evotec), 0.5 μM acyl-transfer reagent (decanoyl P. aeruginosa acyl-carrier protein [PaACP-C10] or myristoyl E. coli acyl-carrier protein [EcACP-C1-4], both produced at Evotec), and 1% DMSO containing test compound. After 30 min incubation at room temperature, reactions were stopped by addition of 30 μL of 10% TCA in water.
(§3) Samples were centrifuged (4350 rpm, 4° C., 5 min), and then subjected to RapidFire™ MS analysis on an Agilent RapidFire 300 coupled to an Agilent 6460 triple-quadrupole mass spectrometer. Analytes were retained on a C4 (type A) cartridge using the following solvents and flow rates: • Pump 1—H2O with 5 mM NH4OAc at 2.0 mL/min, • Pump 2—MeOH/H2O (90/10) at 1.5 mL/min, • Pump 3—MeOH/H2O (90/10) at 0.5 mL/min, and • Pump 4—ACN (organic)/H2O (aqueous). Substrate and product of the reaction were detected in negative mode ESI-MS/MS by MRM (multiple reaction monitoring) of transitions 606.0/385.0 (UDP-GlcNAc substrate) and 776.2/385.0 (UDP-3-O—(R-3-hydroxydecanoyl)-GlcNAc product, for P. aeruginosa LpxA assay) or 832.2/385.0 (UDP-3-O—(R-3-hydroxymyristoyl)-GlcNAc product, for E. coli LpxA assay).
(§4) For IC50 determinations, peak areas of the substrate and product were compared to compute the proportion of product formed by the LpxA enzyme at each compound concentration.

The target of assay [2] is recombinant LpxA enzyme (E. coli) (Escherichia coli, UniProt P0A722). The assay is described as follows: LpxA in vitro substrate acylation assay with RapidFire MS analysis (E. coli). Format: biochemical. As for the experimental part: as §1, §2, §3, §4
Assay [3] deals with Wild-type P. aeruginosa PAO1. The assay is described as follows: Broth microdilution MIC, wild-type P. aeruginosa PAO1. The class given is cell-based. To be noted: Pseudomonas aeruginosa; wild-type P. aeruginosa PAO1, 37° C., 18 h; read-out: PAO1 WT MIC. A general note: Dilution methods test growth across graded concentrations, often in twofold steps.
Assay [4] deals with P. aeruginosa PAO1 ΔmexABoprM. The assay is described as follows: Broth microdilution MIC, P. aeruginosa PAO1 ΔmexABoprM. Format: cell-based. To be noted: Pseudomonas aeruginosa, PAO1, 18 h, read-out: PAO1 KO MIC.
The subject of the next assay is P. aeruginosa LESB58. The assay is described as follows: Broth microdilution MIC, P. aeruginosa LESB58. Format: cell-based. To be noted: Pseudomonas aeruginosa; P. aeruginosa LESB58 clinical isolate, colistin-resistant, 37° C., 18 h.
For a further assay, the system named is P. aeruginosa PAO397. The assay is described as follows: Broth microdilution MIC, P. aeruginosa PAO397. The class given is cell-based. The following applies: Pseudomonas aeruginosa, PAO397, 18 h, read-out: PAO397 KO MIC.
In assay [5] the target is T2, recombinant LpxD enzyme (P. aeruginosa) (Pseudomonas aeruginosa, UniProt Q9HXY6).
T2 sequence (Q9HXY6 1-353): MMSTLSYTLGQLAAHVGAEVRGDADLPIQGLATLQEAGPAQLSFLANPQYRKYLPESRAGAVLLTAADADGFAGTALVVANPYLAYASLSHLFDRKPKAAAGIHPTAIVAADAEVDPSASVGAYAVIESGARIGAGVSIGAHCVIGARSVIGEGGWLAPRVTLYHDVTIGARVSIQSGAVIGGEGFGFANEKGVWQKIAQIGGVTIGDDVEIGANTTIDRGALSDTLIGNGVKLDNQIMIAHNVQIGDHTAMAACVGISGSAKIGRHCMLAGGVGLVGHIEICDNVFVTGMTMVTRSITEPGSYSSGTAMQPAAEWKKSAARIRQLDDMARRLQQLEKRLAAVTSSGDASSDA
The assay is described as follows: LpxD in vitro substrate acylation assay with RapidFire MS analysis (P. aeruginosa). Format: biochemical. The following applies: P. aeruginosa enzyme 10 nM, EcACP-C10, 120 min. The method, then:
Exemplary compounds from the above Examples were tested for ability to inhibit LpxD activity using an in vitro substrate acylation assay with RapidFire™ MS analysis. Assay procedures and results are described below.
Reactions were carried out in a final volume of 30 μL with 25 mM HEPES (pH 7.3), 150 mM NaCl, 2 mM DTT, 0.01% BSA, 5 μM UDP-3-O[R-3-Hydroxymyristoyl]-glucosamine (produced at Charles River according to literature procedures, and partially purified at Evotec), 10 nM recombinant LpxD enzyme (P. aeruginosa or E. coli, produced at Evotec), 1 μM decanoyl E. coli acyl-carrier protein (EcACP-C10, produced at Evotec), and 1% DMSO containing test compound. After 120 min incubation at room temperature, reactions were stopped by addition of 30 μL of 10% TCA in water.
as §3, with “790.3/385.0 (UDP-3-O[R-3-Hydroxymyristoyl]-glucosamine” for “606.0/385.0 (UDP-GlcNAc”, “960.4/385.0 (UDP-3-O—[R-3-Hydroxymyristoyl]-N—[R-3-hydroxydecanoyl]-glucosamine product).” for “776.2/385.0 (UDP-3-O—(R-3-hydroxydecanoyl)-GlcNAc product, for P. aeruginosa LpxA assay) or 832.2/385.0 (UDP-3-O—(R-3-hydroxymyristoyl)-GlcNAc product, for E. coli LpxA assay).”
For IC50 determinations, peak areas of the substrate and product were compared to compute the proportion of product formed by the LpxD enzyme at each compound concentration. The fractional activity was converted to percentage inhibition and plotted against compound concentration in Evotec's proprietary platform Aplus and fit using a four-parameter logistic using non-linear regression to yield the IC50 value.

Molecules are shown by their SMILES. Converted amounts (≈) assume the structure as drawn.

recombinant LpxA enzyme (E. coli), sequence (P0A722 whole entry): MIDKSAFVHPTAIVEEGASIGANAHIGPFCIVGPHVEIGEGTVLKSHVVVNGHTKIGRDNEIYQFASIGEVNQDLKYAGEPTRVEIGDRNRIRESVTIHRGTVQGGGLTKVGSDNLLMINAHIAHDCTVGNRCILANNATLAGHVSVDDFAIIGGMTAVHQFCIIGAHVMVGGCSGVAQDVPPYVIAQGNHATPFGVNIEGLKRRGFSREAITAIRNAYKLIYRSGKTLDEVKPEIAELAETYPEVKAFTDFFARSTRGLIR

Broadly, the IC50 is the concentration that inhibits the measured activity by half. Usually MIC stands for the smallest concentration in the dilution series that meets the test's criterion for growth inhibition. For `Nc1nnc(CN(Cc2ccc(S(N)(=O)=O)cc2)C(=O)CSc2cc(F)cc(F)c2Cl)o1` [compound 59], the IC50 in assay [1] is below 20 nM; in assay [2], above 20000 nM. For the same compound, the MIC in assay [3] is above 64 µg/mL; in assay [4] it was 1 to 16 µg/mL (≈ 1.98 to 31.7 µM); in the assay with P. aeruginosa LESB58, 16 to 64 µg/mL (≈ 31.7 to 127 µM); in the assay on P. aeruginosa PAO397, below 1 µg/mL.
On to `N#Cc1ccc(CN(Cc2nnc(N)o2)C(=O)CCc2ccccc2Cl)cn1` [compound 16], for which the figures for the IC50 in assay [1] and in assay [2] were 100 to 1000 nM and above 20000 nM, respectively. Further, the figures for the MIC (in assay [3]; in assay [4]; in the assay with P. aeruginosa PAO397) were above 64 µg/mL, 16 to 64 µg/mL (≈ 40.3 to 161 µM) and 1 to 16 µg/mL (≈ 2.52 to 40.3 µM), respectively.
For `N#Cc1ccc(CN(C(=O)CSc2ccccc2Cl)[C@@H](CO)c2nnc(N)o2)cn1` [Compound No. 8, 2-(2-Chlorophenyl)sulfanyl-N-[(6-cyano-3-pyridyl)methyl]-N-[(1S)-1-(5-amino-1,3,4-oxadiazol-2-yl)-2-hydroxy-ethyl]acetamide] the same measures were below 20 nM, above 20000 nM, above 64 µg/mL, 1 to 16 µg/mL (≈ 2.25 to 36 µM) and below 1 µg/mL.
With `Cc1ncc(CN(Cc2ccc(C#N)cc2)C(=O)CSc2ccccc2Cl)o1` [compound 73], the IC50 in assay [1] is 100 to 1000 nM; in assay [2] it was above 20000 nM. Also, the results for the minimum inhibitory concentration (MIC) (in assay [3]; in the assay on P. aeruginosa PAO397) were above 64 µg/mL and 1 to 16 µg/mL (≈ 2.43 to 38.8 µM), respectively.
As for `CC(=O)Nc1ccc(CN(Cc2nnc(N)o2)C(=O)CSc2ccccc2Cl)cc1` [compound 44], the values for the IC50 in assay [1] and in assay [2] were 100 to 1000 nM and above 20000 nM, respectively. For the same compound, the MIC is above 64 µg/mL in assay [3] and 16 to 64 µg/mL (≈ 35.9 to 144 µM) in the assay with P. aeruginosa PAO397.
Take `Nc1nnc(CN(Cc2ccc(S(N)(=O)=O)cc2F)C(=O)CSc2cc(F)cc(F)c2Cl)o1` [compound 27]: the IC50 in assay [2] is above 20000 nM. The MIC in assay [3] is above 64 µg/mL; in assay [4], below 1 µg/mL; against P. aeruginosa LESB58 it was 1 to 16 µg/mL (≈ 1.92 to 30.7 µM); with P. aeruginosa PAO397 it was below 1 µg/mL.
Take `Nc1nnc(CN(Cc2ccc(OC3CCOCC3)cc2)C(=O)CSc2ccccc2Cl)o1` [Compound No. 11]: the values for the IC50 in assay [1] and in assay [2] were 100 to 1000 nM and above 20000 nM, respectively. Besides, the MIC was 1 to 16 µg/mL (≈ 2.05 to 32.7 µM) in assay [4] and below 1 µg/mL in the assay on P. aeruginosa PAO397.
Turning to `N#Cc1ccc(CN(CC(=O)N2CCOCC2)C(=O)CSc2ccccc2Cl)cc1` [Compound No. 2], the 50% inhibitory concentration (IC50) was above 1000 nM in assay [1], above 20000 nM in assay [2] and above 20000 nM in assay [5]. Also, the MIC in assay [3] was above 64 µg/mL; in the assay with P. aeruginosa PAO397 it was 16 to 64 µg/mL (≈ 36 to 144 µM).
In the case of `N#Cc1ccc(CN(Cc2nnc(N)o2)C(=O)CSc2ccccc2Cl)cc1` [compound 9], the IC50 in assay [2] was above 20000 nM. For the same compound, the MIC in assay [3] is 16 to 64 µg/mL (≈ 38.7 to 155 µM); in assay [4] it was 1 to 16 µg/mL (≈ 2.42 to 38.7 µM); with P. aeruginosa PAO397 it was below 1 µg/mL.
For the compound `NC(=O)c1ccc(CN(Cc2nnc(N)o2)C(=O)CSc2ccccc2Cl)cc1` [compound 76], the IC50 is 100 to 1000 nM in assay [1] and above 20000 nM in assay [2]. Further, the results for the MIC (in assay [3]; in assay [4]; with P. aeruginosa PAO397) were above 64 µg/mL, 16 to 64 µg/mL (≈ 37 to 148 µM) and 1 to 16 µg/mL (≈ 2.32 to 37 µM), respectively.
With `N#Cc1ccc(CN(CC(=O)N2CCNCC2)C(=O)CSc2ccccc2Cl)cc1` [Compound No. 3], the IC50 in assay [1] was above 1000 nM; in assay [2], above 20000 nM. Further, the MIC was above 64 µg/mL in assay [3] and 16 to 64 µg/mL (≈ 36.1 to 144 µM) with P. aeruginosa PAO397.
As for `CN1CC(NC(=O)CN(Cc2ccc(C#N)cc2)C(=O)CSc2ccccc2Cl)C1` [Compound No. 6], the IC50 in assay [1] was above 1000 nM; in assay [5], above 20000 nM. Moreover, the MIC is above 64 µg/mL in assay [3] and 1 to 16 µg/mL (≈ 2.26 to 36.1 µM) in the assay on P. aeruginosa PAO397.
Consider `N#Cc1ccc(CN(Cc2nnn[nH]2)C(=O)CSc2ccccc2Cl)cc1` [compound 54], for which the 50% inhibitory concentration (IC50) in assay [2] was above 20000 nM. Further, the results for the MIC (in assay [3]; with P. aeruginosa PAO397) were above 64 µg/mL and 16 to 64 µg/mL (≈ 40.1 to 160 µM), respectively.
